Laboratory results from ChEMBL document CHEMBL3091428, “Synthesis and initial biological evaluation of substituted 1-phenylamino-2-thio-4,5-dimethyl-1H-imidazole derivatives” (Bioorg Med Chem Lett, 2013).
Converted amounts (≈) assume the structure as drawn.

Key:
[1] = Toxicity in brine shrimp larvae assessed as mortality after 24 hrs; type: organism-based; settings: artemia salina, in vivo
Artemia salina [2] = assay: Toxicity in brine shrimp larvae assessed as mortality at 400 ug/ml after 24 hrs; type: organism-based; settings: in vivo
Artemia salina [3] = assay: Toxicity in brine shrimp larvae assessed as mortality at 800 ug/ml after 24 hrs; type: organism-based; settings: in vivo
Artemia salina [4] = assay: Toxicity in brine shrimp larvae assessed as mortality at 1600 ug/ml after 24 hrs; type: organism-based; settings: in vivo
Pichia kudriavzevii = assay: Antimicrobial activity against Candida krusei ATCC 6258 after 24 hrs by broth microdilution method; type: functional; settings: ATCC 6258, 24 h
Nakaseomyces glabratus = assay: Antimicrobial activity against Candida glabrata ATCC 90030 after 24 hrs by broth microdilution method; type: functional; settings: ATCC 90030, 24 h
Listeria monocytogenes = assay: Antimicrobial activity against Listeria monocytogenes ATCC 19115 after 24 hrs by broth microdilution method; type: functional; settings: ATCC 19115, 24 h
Candida albicans = assay: Antimicrobial activity against Candida albicans ATCC 90028 after 24 hrs by broth microdilution method; type: functional; settings: ATCC 90028, 24 h
Staphylococcus aureus = assay: Antimicrobial activity against Staphylococcus aureus ATCC 25923 after 24 hrs by broth microdilution method; type: functional; settings: ATCC 25923, 24 h
Enterococcus faecalis [5] = assay: Antimicrobial activity against Enterococcus faecalis ATCC 51299 after 24 hrs by broth microdilution method; type: functional; settings: ATCC 51299, 24 h
Enterococcus faecalis [6] = assay: Antimicrobial activity against Enterococcus faecalis ATCC 29212 after 24 hrs by broth microdilution method; type: functional; settings: ATCC 29212, 24 h
Pseudomonas aeruginosa = assay: Antimicrobial activity against Pseudomonas aeruginosa ATCC 27853 after 24 hrs by broth microdilution method; type: functional; settings: ATCC 27853, 24 h
Klebsiella pneumoniae = assay: Antimicrobial activity against Klebsiella pneumoniae ATCC 13883 after 24 hrs by broth microdilution method; type: functional; settings: ATCC 13883, 24 h
Escherichia coli [7] = assay: Antimicrobial activity against Escherichia coli ATCC 25922 after 24 hrs by broth microdilution method; type: functional; settings: ATCC 25922, 24 h
Escherichia coli [8] = assay: Antimicrobial activity against Escherichia coli ATCC 35218 after 24 hrs by broth microdilution method; type: functional; settings: ATCC 35218, 24 h
Artemia salina [9] = assay: Toxicity in brine shrimp larvae assessed as mortality at 50 ug/ml after 24 hrs; type: organism-based; settings: in vivo
Artemia salina [10] = assay: Toxicity in brine shrimp larvae assessed as mortality at 100 ug/ml after 24 hrs; type: organism-based; settings: in vivo
Artemia salina [11] = assay: Toxicity in brine shrimp larvae assessed as mortality at 200 ug/ml after 24 hrs; type: organism-based; settings: in vivo

Row | MIC (Pichia kudriavzevii) | MIC (Nakaseomyces glabratus) | MIC (Listeria monocytogenes) | MIC (Candida albicans) | MIC (Staphylococcus aureus) | MIC (Enterococcus faecalis [5]) | MIC (Enterococcus faecalis [6]) | MIC (Pseudomonas aeruginosa) | MIC (Klebsiella pneumoniae) | MIC (Escherichia coli [7]) | MIC (Escherichia coli [8]) | SMILES | LC50 at 24 h [1] | Activity (Artemia salina [2]) | Activity (Artemia salina [3]) | Activity (Artemia salina [4]) | Activity (Artemia salina [9]) | Activity (Artemia salina [10]) | Activity (Artemia salina [11])
1 | 200 µg/mL (≈ 492 µM) | 200 µg/mL (≈ 492 µM) | 400 µg/mL (≈ 984 µM) | 400 µg/mL (≈ 984 µM) | 800 µg/mL (≈ 1970 µM) | 800 µg/mL (≈ 1970 µM) | 200 µg/mL (≈ 492 µM) | 400 µg/mL (≈ 984 µM) | 800 µg/mL (≈ 1970 µM) | 800 µg/mL (≈ 1970 µM) | 800 µg/mL (≈ 1970 µM) | Cc1nc(SCC(=O)c2ccc(Cl)c(Cl)c2)n(Nc2ccccc2)c1C | – | – | – | – | – | – | –
2 | 800 µg/mL (≈ 1830 µM) | 800 µg/mL (≈ 1830 µM) | 800 µg/mL (≈ 1830 µM) | 800 µg/mL (≈ 1830 µM) | 800 µg/mL (≈ 1830 µM) | 800 µg/mL (≈ 1830 µM) | 400 µg/mL (≈ 917 µM) | 400 µg/mL (≈ 917 µM) | 800 µg/mL (≈ 1830 µM) | 400 µg/mL (≈ 917 µM) | 800 µg/mL (≈ 1830 µM) | COc1ccc(Nn2c(SCC(=O)c3ccc(Cl)c(Cl)c3)nc(C)c2C)cc1 | – | – | – | – | – | – | –
3 | 200 µg/mL (≈ 498 µM) | 800 µg/mL (≈ 1990 µM) | 1600 µg/mL (≈ 3980 µM) | 800 µg/mL (≈ 1990 µM) | 800 µg/mL (≈ 1990 µM) | 400 µg/mL (≈ 995 µM) | 200 µg/mL (≈ 498 µM) | 800 µg/mL (≈ 1990 µM) | 400 µg/mL (≈ 995 µM) | 800 µg/mL (≈ 1990 µM) | 800 µg/mL (≈ 1990 µM) | COc1cccc(C(=O)CSc2nc(C)c(C)n2Nc2ccc(Cl)cc2)c1 | – | – | – | – | – | – | –
4 | 400 µg/mL (≈ 1040 µM) | 400 µg/mL (≈ 1040 µM) | 400 µg/mL (≈ 1040 µM) | 400 µg/mL (≈ 1040 µM) | 400 µg/mL (≈ 1040 µM) | 800 µg/mL (≈ 2080 µM) | 400 µg/mL (≈ 1040 µM) | 400 µg/mL (≈ 1040 µM) | 800 µg/mL (≈ 2080 µM) | 800 µg/mL (≈ 2080 µM) | 800 µg/mL (≈ 2080 µM) | COc1ccc(Nn2c(SCC(=O)c3cccc(F)c3)nc(C)c2C)cc1 | – | – | – | – | – | – | –
5 | 800 µg/mL (≈ 2070 µM) | 800 µg/mL (≈ 2070 µM) | 800 µg/mL (≈ 2070 µM) | 800 µg/mL (≈ 2070 µM) | 800 µg/mL (≈ 2070 µM) | 800 µg/mL (≈ 2070 µM) | 800 µg/mL (≈ 2070 µM) | 800 µg/mL (≈ 2070 µM) | 800 µg/mL (≈ 2070 µM) | 800 µg/mL (≈ 2070 µM) | 800 µg/mL (≈ 2070 µM) | Cc1ccc(Nn2c(SCC(=O)c3cccc(Cl)c3)nc(C)c2C)cc1 | – | – | – | – | – | – | –

The remaining lines, values behind:

Row | SMILES | MIC (Pichia kudriavzevii) | MIC (Nakaseomyces glabratus) | MIC (Listeria monocytogenes) | MIC (Candida albicans) | MIC (Staphylococcus aureus) | MIC (Enterococcus faecalis [5]) | MIC (Enterococcus faecalis [6]) | MIC (Pseudomonas aeruginosa) | MIC (Klebsiella pneumoniae) | MIC (Escherichia coli [7]) | MIC (Escherichia coli [8]) | LC50 at 24 h [1] | Activity (Artemia salina [2]) | Activity (Artemia salina [3]) | Activity (Artemia salina [4]) | Activity (Artemia salina [9]) | Activity (Artemia salina [10]) | Activity (Artemia salina [11])
6 | COc1ccc(C(=O)CSc2nc(C)c(C)n2Nc2ccc(C)cc2)cc1 | 25 µg/mL (≈ 65.5 µM) | 100 µg/mL (≈ 262 µM) | 50 µg/mL (≈ 131 µM) | 25 µg/mL (≈ 65.5 µM) | 400 µg/mL (≈ 1050 µM) | 400 µg/mL (≈ 1050 µM) | 25 µg/mL (≈ 65.5 µM) | 400 µg/mL (≈ 1050 µM) | 400 µg/mL (≈ 1050 µM) | 100 µg/mL (≈ 262 µM) | 400 µg/mL (≈ 1050 µM) | 153 µg/mL (≈ 400 µM) | Toxic | Toxic | Toxic | – | – | –
7 | COc1ccc(C(=O)CSc2nc(C)c(C)n2Nc2ccc(C)cc2)cc1OC | 50 µg/mL (≈ 121 µM) | 100 µg/mL (≈ 243 µM) | 50 µg/mL (≈ 121 µM) | 100 µg/mL (≈ 243 µM) | 400 µg/mL (≈ 972 µM) | 400 µg/mL (≈ 972 µM) | 100 µg/mL (≈ 243 µM) | 400 µg/mL (≈ 972 µM) | 400 µg/mL (≈ 972 µM) | 200 µg/mL (≈ 486 µM) | 200 µg/mL (≈ 486 µM) | 1310 µg/mL (≈ 3180 µM) | – | – | – | Non-toxic | Non-toxic | Non-toxic
8 | Cc1nc(SCC(=O)c2ccc(F)c(F)c2)n(Nc2ccccc2)c1C | 200 µg/mL (≈ 536 µM) | 400 µg/mL (≈ 1070 µM) | 50 µg/mL (≈ 134 µM) | 400 µg/mL (≈ 1070 µM) | 100 µg/mL (≈ 268 µM) | 400 µg/mL (≈ 1070 µM) | 25 µg/mL (≈ 66.9 µM) | 400 µg/mL (≈ 1070 µM) | 400 µg/mL (≈ 1070 µM) | 400 µg/mL (≈ 1070 µM) | 400 µg/mL (≈ 1070 µM) | 465 µg/mL (≈ 1250 µM) | – | – | – | – | – | –
9 | Cc1nc(SCC(=O)c2ccc(F)c(F)c2)n(Nc2ccc(Cl)cc2)c1C | 100 µg/mL (≈ 245 µM) | 100 µg/mL (≈ 245 µM) | 50 µg/mL (≈ 123 µM) | 50 µg/mL (≈ 123 µM) | 400 µg/mL (≈ 981 µM) | 400 µg/mL (≈ 981 µM) | 50 µg/mL (≈ 123 µM) | 400 µg/mL (≈ 981 µM) | 400 µg/mL (≈ 981 µM) | 400 µg/mL (≈ 981 µM) | 800 µg/mL (≈ 1960 µM) | 359 µg/mL (≈ 881 µM) | – | Toxic | Toxic | Non-toxic | Non-toxic | –
10 | COc1cccc(C(=O)CSc2nc(C)c(C)n2Nc2ccc(C)cc2)c1 | 200 µg/mL (≈ 524 µM) | 400 µg/mL (≈ 1050 µM) | 400 µg/mL (≈ 1050 µM) | 400 µg/mL (≈ 1050 µM) | 800 µg/mL (≈ 2100 µM) | 400 µg/mL (≈ 1050 µM) | 800 µg/mL (≈ 2100 µM) | 800 µg/mL (≈ 2100 µM) | 800 µg/mL (≈ 2100 µM) | 800 µg/mL (≈ 2100 µM) | 200 µg/mL (≈ 524 µM) | – | – | – | – | – | – | –
11 | COc1ccc(C(=O)CSc2nc(C)c(C)n2Nc2ccc(OO)cc2)cc1 | 400 µg/mL (≈ 1000 µM) | 800 µg/mL (≈ 2000 µM) | 800 µg/mL (≈ 2000 µM) | 400 µg/mL (≈ 1000 µM) | 800 µg/mL (≈ 2000 µM) | 800 µg/mL (≈ 2000 µM) | 800 µg/mL (≈ 2000 µM) | 800 µg/mL (≈ 2000 µM) | 800 µg/mL (≈ 2000 µM) | 800 µg/mL (≈ 2000 µM) | 800 µg/mL (≈ 2000 µM) | – | – | – | – | – | – | –
